Literature values in US20170360829A1, “TREATMENT OF VASCULAR ANOMALIES” (GILLIES MCINDOE RESEARCH INSTITUTE, priority 2016, published 2017).

Experiments:
venous malformation (VM) = settings: treatment of VM; review by van der Vleuten et al. (ref. 14)
[1] = system: several tumoral cell lines

IC50 relative to cisplatin [1]	Compound	effective in % of cases (venous malformation (VM)) [%]
–	CCO [ethanol]	74
–	CCCCCCCCCCCCCCOS(=O)(=O)[O-].[Na+] [sodium tetradecyl sulfate]	86
lower IC50 than cisplatin	[Pt(dmba)(aza-N1)(dmso)] complex 1	–
–	bleomycin	88
–	polidocanol	82
